Tested on: neuS gene product of E.coli K92 expressed in BL21(DE3)
Test: Sialyltransferase assay: substrate specificity for acceptor substrates (transfer of 14C-NeuAc from CMP[14C]NeuAc)
Format: biochemical
Settings: for Total sialic acid transferred / cpm obtained (per 60 ul reaction): 1 (M acceptor, 9 nmol CMP[14C]NeuAc (8000 cpm/nmol) as donor, 37 °C, 1 hr, 20 (g of 40K Sup; for Total sialic acid transferred: per 60 ul reaction; for cpm obtained (per 60 ul reaction): product spot on DEAE-cellulose TLC counted; for suitability as acceptor substrate (in words): cell-free fractions (15 K Sup, 40 K Sup, pellet), CMP[14C]NeuAc as donor
Description: The assay was carried out essentially as described by Vimr et al (Steenbergen, S. M. et al. (1992) J. Bacteriol. 174 : 1099-1108) with the following modifications : after harvesting, the cells were washed three times with 25 mM Tris HCI (pH 8. 0) and then resuspended in 25 mM Tris HCl (pH 8. 0) containing 5 mM MgCl2, 5 mM dithiothreitol (DTT), and 1 (1/mL protease inhibitor cocktail (Sigma). Cells were lysed three times by using a French Press (AMINCO; 1, 500 psi). The cell debris was removed by centrifugation twice at 15, 000 rpm and the supernatant was collected (termed the 15 K Sup). This supernatant was then centrifuged again at 100,000x g (~ 40 K rpm) using a Beckman ultracentrifuge (Model L5-50). Both the supernatant (termed the 40 K Sup) and the pellet were saved. The pellet was resuspended in a buffer containing 25 mM Tris-HCI, 5 mM MgCl2, 5 mM DTT, and 0.1% Triton CF-54. The supernatants and the pellet were stored on ice, and used for assay within 2 h.
Without the addition of acceptor, the endogenous enzyme activity was determined. The exogenous activity was then detected by addition of sialic acid as acceptor and CMP[^14C]NeuAc as donor in a reaction buffer containing 25 mM Tris-HCl (pH 8.0), 5 mM MgCl2, 5 mM DTT, and 0.5% Triton CF-54. Other substrates were also used, including colominic acid. Both the endogenous and exogenous enzyme activity assays measure the transfer of ^14C-labeled NeuAc to the acceptor. Unreacted radiolabeled substrates were seperated by DEAE-cellulose TLC (n-propanol/14M NH4OH/H2O:: 6 : 1: 3) or by Sephadex G-25 column chromatography. Radioactivity remaining at the origin and/or at the top of the TLC plate or the product obtained at the void volume of Sephadex G-25 column, was quantitated by liquid scintillation spectrometry. For analysis using Sephadex G-25 column chromatography, a column (1 cm x 3.5 cm) of Sephadex G-25 (Pharmacia) in water was prepared. The radiolabeled cell-free reaction mixture (60 (1) was loaded and washed with 1.5 ml of water, which was collected and counted. In some experiments, the activity was determined by separating the unused CMP[^14C]NeuAc by Dowex 1X8 (phosphate form) column chromatography (Williams, M. A. et al. (1995) Glycoconj. J. 12: 755 - 761). The initial rates were estimated graphically, and activity was expressed as pmoles of sialic acid transferred per hour.
The reaction mixture (60 (l) contained 1 (M each of the following acceptors and 9 nmol of CMP[^14C]NeuAc (specific activity: 8000 cpm/nmol) as donor substrate. The reactions were carried out at 37 °C for 1 hr using 20 (g of 40K Sup as mentioned in 'Materials and Methods.' The reaction mixture (1 (1) was spotted on a plastic backed DEAE-cellulose TLC plate, and ran in n-propanol:14.5M NH4OH:water :: 6:1:3. After air-drying, the plate was exposed to Kodak's XAR-5 film for overnight at -70° C. The area corresponding to the reaction product was marked, cut and then counted in scintillation fluid.

Compound	Total sialic acid transferred	cpm obtained (per 60 ul reaction)	suitability as acceptor substrate (in words)	suitability as acceptor substrate (in words) (listed as neuraminic acid)
CC(=O)N[C@H]1[C@H]([C@H](O)[C@H](O)COC(C)=O)OC(O)(C(=O)O)C[C@@H]1O (stereo partly drawn) [9-O-acetyl sialic acid]	110 pmol	900 cpm	not well accepted	–
CC(=O)N[C@H]1[C@H]([C@H](O)[C@H](O)CO)O[C@@](O[C@H](CO)[C@@H](O)[C@@H]2O[C@@](O[C@H](CO)[C@@H](O)[C@@H]3OC(O)(C(=O)O)C[C@H](O)[C@H]3NC(C)=O)(C(=O)O)C[C@H](O)[C@H]2NC(C)=O)(C(=O)O)C[C@@H]1O (stereo partly drawn) [Trimer]	140 pmol	1560 cpm	poor acceptors	–
CC(=O)N[C@H]1[C@H]([C@H](O)[C@H](O)CO)O[C@@](O[C@H](CO)[C@@H](O)[C@@H]2OC(O)(C(=O)O)C[C@H](O)[C@H]2NC(C)=O)(C(=O)O)C[C@@H]1O (stereo partly drawn) [Dimer]	140 pmol	1080 cpm	poor acceptors	–
CC(=O)N[C@H]1[C@H]([C@H](O)[C@H](O)CO)OC(O)(C(=O)O)C[C@@H]1O (stereo partly drawn) [Monomer, sialic acid]	470 pmol	3780 cpm	good acceptors	best substrate
GT1b	130 pmol	1140 cpm	–	–
